Several values for one entry are separate records, joined by “and”; a condition that tells them apart may be missing. Equal values may be shown once. Toxic doses and inconclusive results are not listed.
Tested on: L1210 leukemia ip in BDF1 mice, survival T/C
Assay: NCI In Vivo Anticancer Drug Screen. Data for tumor model L1210 Leukemia (intraperitoneal) in B6D2F1 (BDF1) mice
Settings: endpoint: mean survival time, higher = longer survival
Procedure, shortened: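 Mice bearing the transplanted tumor received compound or vehicle. Survival of the treated group was divided by that of the vehicle-treated control group to give the ratio.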

[1] = dose: 50.0 mg/kg/injection, schedule: Q01DX001 (ip), vehicle: carboxymethylcellulose (CMC)
[2] = dose: 100.0 mg/kg/injection, schedule: Q01DX001 (ip), vehicle: carboxymethylcellulose (CMC)
[3] = dose: 200.0 mg/kg/injection, schedule: Q01DX001 (ip), vehicle: carboxymethylcellulose (CMC)
[4] = dose: 300.0 mg/kg/injection, schedule: Q01DX001 (ip), vehicle: carboxymethylcellulose (CMC)
[5] = dose: 100.0 mg/kg/injection, schedule: Q01DX001 (ip), vehicle: saline
[6] = dose: 100.0 mg/kg/injection, schedule: Q01DX009 (ip), vehicle: saline
[7] = dose: 100.0 mg/kg/injection, schedule: Q04DX002 (ip), vehicle: saline
[8] = dose: 200.0 mg/kg/injection, schedule: Q01DX001 (ip), vehicle: saline
[9] = dose: 200.0 mg/kg/injection, schedule: Q01DX009 (ip), vehicle: saline
[10] = dose: 200.0 mg/kg/injection, schedule: Q04DX002 (ip), vehicle: saline
[11] = dose: 400.0 mg/kg/injection, schedule: Q01DX001 (ip), vehicle: saline
[12] = dose: 100.0 mg/kg/injection, schedule: Q04DX003 (ip), vehicle: saline with Tween-80
[13] = dose: 200.0 mg/kg/injection, schedule: Q04DX003 (ip), vehicle: saline with Tween-80
[14] = dose: 400.0 mg/kg/injection, schedule: Q04DX003 (ip), vehicle: saline with Tween-80
[15] = dose: 100.0 mg/kg/injection, schedule: Q01DX009 (ip), vehicle: saline with Tween-80
[16] = dose: 200.0 mg/kg/injection, schedule: Q01DX009 (ip), vehicle: saline with Tween-80
[17] = dose: 400.0 mg/kg/injection, schedule: Q01DX009 (ip), vehicle: saline with Tween-80

## C[N+](C)(C)CCOC(=O)c1ccc(CCl)cc1
dose: 25.0 mg/kg/injection, schedule: Q04DX002 (ip), vehicle: saline with Tween-80
  T/C: 113 % of control
dose: 50.0 mg/kg/injection, schedule: Q04DX002 (ip), vehicle: saline with Tween-80
  T/C: 102 % of control
dose: 100.0 mg/kg/injection, schedule: Q04DX002 (ip), vehicle: other
  T/C: 98 % of control
dose: 100.0 mg/kg/injection, schedule: Q04DX002 (ip), vehicle: saline with Tween-80
  T/C: 110 % of control

## ClCCN(CCCl)c1ccc(C=Nc2cccc(Cl)c2)cc1
[1]
  T/C: 100 % of control
[2]
  T/C: 100 % of control
[3]
  T/C: 105 % of control
dose: 400.0 mg/kg/injection, schedule: Q01DX001 (ip), vehicle: carboxymethylcellulose (CMC)
  T/C: 105 % of control

## O=C(Nc1ccccc1)Nc1ncn[nH]1
dose: 75.0 mg/kg/injection, schedule: Q01DX001 (ip), vehicle: carboxymethylcellulose (CMC)
  T/C: 97 % of control
dose: 150.0 mg/kg/injection, schedule: Q01DX001 (ip), vehicle: carboxymethylcellulose (CMC)
  T/C: 92 % of control
[4]
  T/C: 90 % of control

## CSC(=N)N
[5]
  T/C: 105 % of control
[6]
  T/C: 99 % of control
[7]
  T/C: 100 % of control
dose: 100.0 mg/kg/injection, schedule: Q04DX003 (ip), vehicle: saline
  T/C: 101 % of control
[8]
  T/C: 96 % of control
[9]
  T/C: 91 % of control
[10]
  T/C: 100 % of control
dose: 200.0 mg/kg/injection, schedule: Q04DX003 (ip), vehicle: saline
  T/C: 97 % of control
dose: 400.0 mg/kg/injection, schedule: Q01DX009 (ip), vehicle: saline
  T/C: 89 % of control
dose: 400.0 mg/kg/injection, schedule: Q04DX003 (ip), vehicle: saline
  T/C: 97 % of control

## COC1OC(COC(C)=O)C(N(C)C(C)=O)C1OC(C)=O (stereo unspecified)
[5]
  T/C: 96 % of control
[8]
  T/C: 90 % of control
[11]
  T/C: 94 % of control

## C=C(C)COc1cc(C=NCCCC)c(C)cc1C
[12]
  T/C: 96 % of control
[13]
  T/C: 102 % of control
[14]
  T/C: 96 % of control

## CC1(C)CCC(C)(C)c2c1ccc(O)c2Sc1c(O)ccc2c1C(C)(C)CCC2(C)C
[5]
  T/C: 87 % of control

## C=C1C(=O)OC2C=C(C(O)CC(C)O)C(C)CCC12 (stereo unspecified)
dose: 50.0 mg/kg/injection, schedule: Q01DX001 (ip), vehicle: water
  T/C: 89 % of control
dose: 100.0 mg/kg/injection, schedule: Q01DX001 (ip), vehicle: water
  T/C: 95 % of control
dose: 200.0 mg/kg/injection, schedule: Q01DX001 (ip), vehicle: water
  T/C: 94 % of control

## O=NN(CCBr)C(=O)NCCBr
dose: 3.0 mg/kg/injection, schedule: Q01DX Z (ip), vehicle: carboxymethylcellulose (CMC)
  T/C: 110 % of control
dose: 6.0 mg/kg/injection, schedule: Q01DX Z (ip), vehicle: carboxymethylcellulose (CMC)
  T/C: 107 % of control
dose: 6.25 mg/kg/injection, schedule: Q01DX001 (ip), vehicle: carboxymethylcellulose (CMC)
  T/C: 104 % of control
dose: 12.5 mg/kg/injection, schedule: Q01DX001 (ip), vehicle: carboxymethylcellulose (CMC)
  T/C: 103 % of control
dose: 25.0 mg/kg/injection, schedule: Q01DX001 (ip), vehicle: carboxymethylcellulose (CMC)
  T/C: 109 % of control
[1]
  T/C: 114 % of control
dose: 50.0 mg/kg/injection, schedule: Q01DX Z (ip), vehicle: carboxymethylcellulose (CMC)
  T/C: 172 % of control
dose: 100.0 mg/kg/injection, schedule: Q01DX Z (ip), vehicle: carboxymethylcellulose (CMC)
  T/C: 156 % of control
[3]
  T/C: 178 % of control
[4]
  T/C: 200 % of control

## CC(C1CCCCC1)C(C#N)C(=O)NC(N)=O (stereo unspecified)
dose: 50.0 mg/kg/injection, schedule: Q01DX001 (ip), vehicle: saline
  T/C: 97 % of control
[5]
  T/C: 92 % of control
[8]
  T/C: 95 % of control
[11]
  T/C: 90 % of control

## Cc1ccc(Cl)cc1NC(=O)c1c(Br)c(Br)c(Br)c(Br)c1C(=O)O
[15]
  T/C: 105 % of control
[12]
  T/C: 97 % of control
[16]
  T/C: 105 % of control
[13]
  T/C: 101 % of control
[17]
  T/C: 113 % of control
[14]
  T/C: 101 % of control

## CC(C)C(NCCNC(C(C)C)C(C)C)C(C)C
dose: 50.0 mg/kg/injection, schedule: Q01DX009 (ip), vehicle: saline
  T/C: 106 % of control
[6]
  T/C: 102 % of control
[9]
  T/C: 106 % of control

## CC1(C)OCC(C2OC3OC(c4ccccc4)=NC3C2O)O1 (stereo unspecified)
dose: 100.0 mg/kg/injection, schedule: Q01DX001 (ip), vehicle: Klucel (hydroxypropylcellulose) (HPC)
  T/C: 96 % of control
dose: 200.0 mg/kg/injection, schedule: Q01DX001 (ip), vehicle: Klucel (hydroxypropylcellulose) (HPC)
  T/C: 104 % of control
dose: 400.0 mg/kg/injection, schedule: Q01DX001 (ip), vehicle: Klucel (hydroxypropylcellulose) (HPC)
  T/C: 101 % of control

## Nc1ncnc(Nc2ccc([N+](=O)[O-])cc2)c1[N+](=O)[O-]
dose: 100.0 mg/kg/injection, schedule: Q01DX009 (ip), vehicle: Klucel (hydroxypropylcellulose) (HPC)
  T/C: 97 % of control
dose: 200.0 mg/kg/injection, schedule: Q01DX009 (ip), vehicle: Klucel (hydroxypropylcellulose) (HPC)
  T/C: 92 % of control
dose: 400.0 mg/kg/injection, schedule: Q01DX009 (ip), vehicle: Klucel (hydroxypropylcellulose) (HPC)
  T/C: 96 % of control

## [Cu+2].[NH-]c1ccccc1C(=O)O.[NH-]c1ccccc1C(=O)O
dose: 12.5 mg/kg/injection, schedule: Q01DX009 (ip), vehicle: saline with Tween-80
  T/C: 101 % of control
dose: 12.5 mg/kg/injection, schedule: Q04DX003 (ip), vehicle: saline with Tween-80
  T/C: 97 % of control
dose: 25.0 mg/kg/injection, schedule: Q01DX009 (ip), vehicle: saline with Tween-80
  T/C: 101 % of control
dose: 25.0 mg/kg/injection, schedule: Q04DX003 (ip), vehicle: saline with Tween-80
  T/C: 97 % of control
dose: 50.0 mg/kg/injection, schedule: Q01DX009 (ip), vehicle: saline with Tween-80
  T/C: 88 % of control
dose: 50.0 mg/kg/injection, schedule: Q04DX003 (ip), vehicle: saline with Tween-80
  T/C: 90 % of control

## CCOc1ccc(Nc2nc(=O)[nH]c3ccccc23)cc1CN(CCCl)CCCl
dose: 25.0 mg/kg/injection, schedule: Q04DX002 (ip), vehicle: saline
  T/C: 104 % of control
dose: 50.0 mg/kg/injection, schedule: Q04DX002 (ip), vehicle: saline
  T/C: 100 % of control
[7]
  T/C: 111 % of control
[10]
  T/C: 95 % of control and 111 % of control
dose: 400.0 mg/kg/injection, schedule: Q04DX002 (ip), vehicle: saline
  T/C: 95 % of control

## COc1cc(OC)c2c(c1Cl)OC1(C(=O)C=CCC1C)C2=O (stereo unspecified)
[12]
  T/C: 98 % of control
[13]
  T/C: 104 % of control
[14]
  T/C: 96 % of control

## O=[N+]([O-])c1ccc2ncsc2c1
[15]
  T/C: 98 % of control
[12]
  T/C: 112 % of control
[16]
  T/C: 98 % of control
[13]
  T/C: 102 % of control
[17]
  T/C: 98 % of control
[14]
  T/C: 104 % of control

## CC(C)C/C=N\N=C(N)N
dose: 15.0 mg/kg/injection, schedule: Q01DX Z (ip), vehicle: saline
  T/C: 103 % of control
dose: 30.0 mg/kg/injection, schedule: Q01DX Z (ip), vehicle: saline
  T/C: 113 % of control
dose: 60.0 mg/kg/injection, schedule: Q01DX Z (ip), vehicle: saline
  T/C: 104 % of control and 90 % of control
dose: 60.0 mg/kg/injection, schedule: Q01DX Z (sc), vehicle: saline
  T/C: 117 % of control
dose: 120.0 mg/kg/injection, schedule: Q01DX Z (ip), vehicle: saline
  T/C: 103 % of control
dose: 120.0 mg/kg/injection, schedule: Q01DX Z (sc), vehicle: saline
  T/C: 110 % of control

## O=C(/C=C/c1ccccc1)CCN1CCC2CCC(C2)C1 (stereo unspecified)
[1]
  T/C: 103 % of control
[2]
  T/C: 97 % of control

## C(CC1CCCCC1)=C(CCC1CCCCC1)CCC1CCCCC1
[12]
  T/C: 103 % of control
[13]
  T/C: 105 % of control
[14]
  T/C: 100 % of control

## Cc1nc(C(=O)O)c(=O)[nH]c1C
dose: 50.0 mg/kg/injection, schedule: Q01DX009 (ip), vehicle: water
  T/C: 103 % of control
dose: 100.0 mg/kg/injection, schedule: Q01DX009 (ip), vehicle: water
  T/C: 103 % of control
dose: 100.0 mg/kg/injection, schedule: Q04DX003 (ip), vehicle: water
  T/C: 102 % of control
dose: 200.0 mg/kg/injection, schedule: Q01DX009 (ip), vehicle: water
  T/C: 101 % of control
dose: 200.0 mg/kg/injection, schedule: Q04DX003 (ip), vehicle: water
  T/C: 101 % of control
